The structures appear in SMILES notation.

Assay type in all cases: biochemical
Assay [1] deals with T1, recombinant serine protease domain of matriptase or MTSP1 (rMAP) (Homo sapiens, UniProt Q9Y5Y6).
T1 construct: host or cells: Pichia pastoris SMD1168 / pPIC9K-MTSP1
T1 sequence (Q9Y5Y6 615-855): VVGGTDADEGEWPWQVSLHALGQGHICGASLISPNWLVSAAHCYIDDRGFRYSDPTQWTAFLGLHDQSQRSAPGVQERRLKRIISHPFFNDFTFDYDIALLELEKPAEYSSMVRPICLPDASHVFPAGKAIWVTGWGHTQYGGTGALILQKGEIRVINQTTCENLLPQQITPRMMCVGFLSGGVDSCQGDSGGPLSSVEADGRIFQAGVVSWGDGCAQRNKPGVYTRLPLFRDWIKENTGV
The assay is described as follows: Amidolytic assay for inhibition of serine protease activity of matriptase or MTSP1 (rMAP). As to conditions: 30 min preincubation of compound and rMAP; substrate S-2765. How it is done: The ability of the compounds of the present invention to act as inhibitors of rMAP catalytic activity was assessed by determining the inhibitor-induced inhibition of amidolytic activity by the MAP, as measured by IC50 values.
The assay buffer was HBSA (10 mM Hepes, 150 mM sodium chloride, pH 7.4, 0.1% bovine serum albumin). All reagents were from Sigma Chemical Co. (St. Louis, Mo.), unless otherwise indicated.
Two IC50 assays (a) one at either 30-minutes or 60-minutes (a 30-minute or a 60-minute preincubation of test compound and enzyme) and (b) one at 0-minutes (no preincubation of test compound and enzyme) were conducted. […] Following either a 30-minute or a 60-minute incubation at ambient temperature, the assay was initiated by the addition of 50 microliters of the substrate S-2765 (N-α-Benzyloxycarbonyl-D-arginyl-L-glycyl-L-arginine-p-nitroaniline dihydrochloride; DiaPharma Group, Inc.; Franklin, Ohio) to each well, yielding a final assay volume of 200 microliters and a final substrate concentration of 100 μM (about 4-times Km). Before addition to the assay mixture, S-2765 was reconstituted in deionized water and diluted in HBSA. For the IC50 assay at 0 minutes; the same reagents were combined: 50 microliters of HBSA, 50 microliters of the test compound, diluted (covering the identical concentration range) in HBSA (or HBSA alone for uninhibited velocity measurement), and 50 microliters of the substrate S-2765. The assay was initiated by the addition of 50 microliters of rMAP. The final concentrations of all components were identical in both IC50 assays (at 30- or 60- and 0-minute).
The initial velocity of chromogenic substrate hydrolysis was measured in both assays by the change of absorbance at 405 nm using a Thermo Max® Kinetic Microplate Reader (Molecular Devices) over a 5 minute period, in which less than 5% of the added substrate was utilized. The concentration of added inhibitor, which caused a 50% decrease in the initial rate of hydrolysis was defined as the respective IC50 value in each of the two assays (30- or 60-minutes and 0-minute).

Assay [2] concerns the target T2, Factor Xa (Homo sapiens, UniProt P00742).
T2 construct: purchased Enzyme Research Laboratories, Inc. (South Bend, Ind.)
The assay is described as follows: In vitro enzyme assay for specificity: Factor Xa. To be noted: 30 min preincubation; substrate S-2765; read-out: FXa IC50 30 Min. How it is done:
(§1) The ability of compounds to act as a selective inhibitor of matriptase activity was assessed by determining the concentration of test-compound which inhibited the activity of matriptase by 50%, (IC50) as described in Example A, and comparing IC50 value for matriptase to that determined for all or some of the following serine proteases: thrombin, recombinant tissue plasminogen activator (rt-PA), plasmin, activated protein C, chymotrypsin, factor Xa and trypsin.
(§2) The buffer used for all assays was HBSA (10 mM HEPES, pH 7.5, 150 mM sodium chloride, 0.1% bovine serum albumin).
(§3) The assay for IC50 determinations was conducted by combining in appropriate wells of a Corning microtiter plate, 50 microliters of HBSA, 50 microliters of the test compound at a specified concentration (covering a broad concentration range) diluted in HBSA (or HBSA alone for V0 (uninhibited velocity) measurement), and 50 microliters of the enzyme diluted in HBSA. Following a 30 minute incubation at ambient temperature, 50 microliters of the substrate at the concentrations specified below were added to the wells, yielding a final total volume of 200 microliters. The initial velocity of chromogenic substrate hydrolysis was measured by the change in absorbance at 405 nm using a Thermo Max® Kinetic Microplate Reader over a 5 minute period in which less than 5% of the added substrate was utilized. The concentration of added inhibitor which caused a 50% decrease in the initial rate of hydrolysis was defined as the IC50 value.
Factor Xa catalytic activity was determined using the chromogenic substrate S-2765 (N-benzyloxycarbonyl-D-arginine-L-glycine-L-arginine-p-nitro aniline), obtained from DiaPharma Group (Franklin, Ohio). All substrates were reconstituted in deionized water prior to use. […] Purified human Factor X was obtained from Enzyme Research Laboratories, Inc. (South Bend, Ind.) and Factor Xa (FXa) was activated and prepared from it as described [Bock, P. E., Craig, P. A., Olson, S. T., and Singh, P. Arch. Biochem. Biophys. 273:375–388 (1989)]. The enzyme was diluted into HBSA prior to assay in which the final concentration was 0.25 nM.

Assay [3] has as its target T3, human plasmin (Homo sapiens, UniProt P00747).
T3 construct: Purified human plasmin was obtained from Enzyme Research Laboratories, Inc; purchased Enzyme Research Laboratories, Inc
The assay is described as follows: In vitro enzyme assay for specificity: Plasmin. To be noted: 30 min preincubation; substrate S-2366. Here is the method: as §1, §2, §3
Plasmin catalytic activity was determined using the chromogenic substrate, S-2366 [L-pyroglutamyl-L-prolyl-L-arginine-p-nitroaniline hydrochloride], which was obtained from DiaPharma group. The substrate was made up in deionized water followed by dilution in HBSA prior to the assay in which the final concentration was 300 micromolar (about 2.5-times Km). Purified human plasmin was obtained from Enzyme Research Laboratories, Inc. The enzyme was diluted into HBSA prior to assay in which the final concentration was 1.0 nM.

Assay [4] deals with T4, bovine pancreatic trypsin (Bos taurus, UniProt P00760).
T4 construct: Purified (3×-crystallized; TRL3) bovine pancreatic trypsin was obtained from Worthington Biochemical Corp; purchased Worthington Biochemical Corp. TRL3; host or cells: bovine pancreas
T4 sequence (P00760 24-246): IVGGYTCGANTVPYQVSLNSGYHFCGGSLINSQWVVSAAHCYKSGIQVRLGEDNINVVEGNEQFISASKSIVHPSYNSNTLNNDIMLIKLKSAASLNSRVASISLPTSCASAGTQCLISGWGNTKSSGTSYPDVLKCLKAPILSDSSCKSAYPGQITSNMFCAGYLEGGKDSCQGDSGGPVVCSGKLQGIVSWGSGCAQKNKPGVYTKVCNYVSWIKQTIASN
The assay is described as follows: In vitro enzyme assay for specificity: Trypsin. As to conditions: 30 min preincubation; substrate S-2222; read-out: Thypsin IC50 30 Min. How it is done:
as §1, §2, §3
Trypsin catalytic activity was determined using the chromogenic substrate, S-2222 (benzoyl-L-isoleucine-L-glutamic acid-[gamma-methyl ester]-L-arginine-p-nitroanilide), which was obtained from DiaPharma Group. […] Purified (3×-crystallized; TRL3) bovine pancreatic trypsin was obtained from Worthington Biochemical Corp. The enzyme was reconstituted in deionized water and diluted into HBSA prior to assay in which the final concentration was 0.5 nM.

Assay [5] deals with T5, human α-thrombin (Homo sapiens, UniProt P00734).
T5 construct: Purified human α-thrombin was obtained from Enzyme Research Laboratories, Inc; purchased Enzyme Research Laboratories, Inc
The assay is described as follows: In vitro enzyme assay for specificity: Thrombin (fIIa). To be noted: 30 min preincubation; substrate Pefachrome t-PA. How it is done:
as §1, §2, §3
Enzyme activity was determined using the chromogenic substrate, Pefachrome t-PA (CH3SO2-D-hexahydrotyrosine-glycyl-L-Arginine-p-nitroaniline, obtained from Pentapharm Ltd.). The substrate was reconstituted in deionized water prior to use. Purified human α-thrombin was obtained from Enzyme Research Laboratories, Inc. The buffer used for all assays was HBSA (10 mM HEPES, pH 7.5, 150 mM sodium chloride, 0.1% bovine serum albumin).
The initial velocity of Pefachrome t-PA hydrolysis was measured by the change in absorbance at 405 nm using a Thermo Max® Kinetic Microplate Reader over a 5 minute period in which less than 5% of the added substrate was utilized. The concentration of added inhibitor which caused a 50% decrease in the initial rate of hydrolysis was defined as the IC50 value.

T2 sequence (P00742 235-488 limits assumed): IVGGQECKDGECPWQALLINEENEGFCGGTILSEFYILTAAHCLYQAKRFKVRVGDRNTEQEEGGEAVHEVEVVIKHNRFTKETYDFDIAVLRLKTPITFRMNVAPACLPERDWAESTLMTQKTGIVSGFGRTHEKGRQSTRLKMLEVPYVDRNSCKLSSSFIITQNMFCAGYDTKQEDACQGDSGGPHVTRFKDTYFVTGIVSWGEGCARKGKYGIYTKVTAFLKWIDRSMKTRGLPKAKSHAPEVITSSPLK
T2 sequence (P00742 41-179 partner limits assumed): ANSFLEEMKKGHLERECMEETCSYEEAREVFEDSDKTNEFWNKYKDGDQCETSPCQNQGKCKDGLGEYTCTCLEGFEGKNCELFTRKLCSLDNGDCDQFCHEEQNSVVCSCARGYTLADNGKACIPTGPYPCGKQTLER
T3 sequence (P00747 581-810 limits assumed): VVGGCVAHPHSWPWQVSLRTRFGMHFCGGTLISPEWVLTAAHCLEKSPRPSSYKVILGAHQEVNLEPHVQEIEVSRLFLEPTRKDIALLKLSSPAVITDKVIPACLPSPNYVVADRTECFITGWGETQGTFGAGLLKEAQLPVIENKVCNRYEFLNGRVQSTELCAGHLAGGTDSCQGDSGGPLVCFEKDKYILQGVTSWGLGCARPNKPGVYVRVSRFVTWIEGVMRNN
T3 sequence (P00747 97-580 partner limits assumed): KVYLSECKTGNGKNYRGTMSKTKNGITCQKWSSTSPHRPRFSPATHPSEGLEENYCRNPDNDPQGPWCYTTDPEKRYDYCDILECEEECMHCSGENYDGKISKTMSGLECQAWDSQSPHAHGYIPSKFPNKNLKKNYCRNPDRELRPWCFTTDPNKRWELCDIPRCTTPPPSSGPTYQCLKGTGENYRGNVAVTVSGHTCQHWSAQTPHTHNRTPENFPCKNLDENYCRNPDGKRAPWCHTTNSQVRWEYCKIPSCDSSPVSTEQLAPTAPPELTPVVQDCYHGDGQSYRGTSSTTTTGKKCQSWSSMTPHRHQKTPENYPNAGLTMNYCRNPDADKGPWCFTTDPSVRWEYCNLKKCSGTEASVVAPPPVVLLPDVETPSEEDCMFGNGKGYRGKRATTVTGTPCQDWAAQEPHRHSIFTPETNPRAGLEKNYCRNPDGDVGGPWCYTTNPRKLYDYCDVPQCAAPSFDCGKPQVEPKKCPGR

One may read the IC50 as the concentration that gives 50% inhibition. For the compound `N=C(N)NCCC[C@@H](C=O)NC(=O)CNC(=O)[C@@](N)(CCC(=O)O)Cc1cccc(C(=N)N)c1` [A], the IC50 is under 100 nM in assay [1]; over 2500 nM in assay [2]; 500 to 2500 nM in assay [3]; 250 to 500 nM in assay [4]; over 2500 nM in assay [5].

Turning to `N=C(N)NCCCC(C=O)NC(=O)CNC(=O)C(CCC(=O)O)(Cc1cccc(C(=N)N)c1)NS(=O)(=O)Cc1ccccc1` (stereo not drawn) [B], the IC50 was under 100 nM in assay [1]; over 2500 nM in assay [2]; over 2500 nM in assay [3]; over 2500 nM in assay [4]; 500 to 2500 nM in assay [5].

`COC(=O)CCC(N)(Cc1cccc(C(=N)N)c1)C(=O)NCC(=O)NC(C=O)CCCNC(=N)N` (stereo not drawn) [C]: the IC50 in assay [1] is under 100 nM; in assay [2], over 2500 nM; in assay [3] it was 500 to 2500 nM; in assay [4], 500 to 2500 nM; in assay [5], over 2500 nM.

In the case of `COC(=O)N[C@](CCC(=O)O)(Cc1cccc(C(=N)N)c1)C(=O)NCC(=O)N[C@H](C=O)CCCNC(=N)N` [D], the IC50 was under 100 nM in assay [1]; over 2500 nM in assay [2]; over 2500 nM in assay [3]; over 2500 nM in assay [4]; over 2500 nM in assay [5].

As for `CC(=O)N[C@](CCC(=O)O)(Cc1cccc(C(=N)N)c1)C(=O)NCC(=O)N[C@H](C=O)CCCNC(=N)N` [E], the IC50 in assay [1] is under 100 nM; in assay [2], over 2500 nM; in assay [3], over 2500 nM; in assay [4] it was over 2500 nM; in assay [5] it was over 2500 nM.

On to `COC(=O)N[C@](CCC(=O)O)(Cc1cccc(C(=N)N)c1)C(=O)N[C@@H](C)C(=O)N[C@H](C=O)CCCNC(=N)N` [F], for which the IC50 was under 100 nM in assay [1]; over 2500 nM in assay [2]; 500 to 2500 nM in assay [3]; 500 to 2500 nM in assay [4]; over 2500 nM in assay [5].

In the case of `COC(=O)N[C@](CCC(=O)O)(Cc1cccc(C)c1)C(=O)N[C@@H](C)C(=O)N[C@H](C=O)CCCNC(=N)N` [G], the IC50 was under 100 nM in assay [1]; over 2500 nM in assay [2]; 500 to 2500 nM in assay [3]; under 100 nM in assay [4]; over 2500 nM in assay [5].

Regarding `CCNC(=O)N[C@](CCC(=O)O)(Cc1cccc(C(=N)N)c1)C(=O)NCC(=O)N[C@H](C=O)CCCNC(=N)N` [H], the IC50 was under 100 nM in assay [1]; over 2500 nM in assay [2]; over 2500 nM in assay [3]; over 2500 nM in assay [4]; over 2500 nM in assay [5].

Turning to `COC(=O)N[C@](CCC(=O)O)(Cc1ccccc1)C(=O)NCC(=O)N[C@H](C=O)CCCNC(=N)N` [I], the IC50 in assay [1] was under 100 nM; in assay [2] it was 500 to 2500 nM; in assay [3], over 2500 nM; in assay [4], 500 to 2500 nM; in assay [5] it was over 2500 nM.

`CCOC(=O)N[C@](CCC(=O)O)(Cc1cccc(C(=N)N)c1)C(=O)NCC(=O)N[C@H](C=O)CCCNC(=N)N` [K]: the IC50 in assay [1] is under 100 nM; in assay [2], over 2500 nM; in assay [3] it was over 2500 nM; in assay [4], over 2500 nM; in assay [5], over 2500 nM.

In the case of `CC(C)COC(=O)N[C@](CCC(=O)O)(Cc1cccc(C(=N)N)c1)C(=O)NCC(=O)N[C@H](C=O)CCCNC(=N)N` [L], the IC50 in assay [1] was under 100 nM; in assay [2], over 2500 nM; in assay [3], over 2500 nM; in assay [4], over 2500 nM; in assay [5], over 2500 nM.

Turning to `N=C(N)NCCC[C@@H](C=O)NC(=O)CNC(=O)[C@@](CCC(=O)O)(Cc1cccc(C(=N)N)c1)NC(=O)Oc1ccccc1` [M], the IC50 was under 100 nM in assay [1]; 500 to 2500 nM in assay [2]; over 2500 nM in assay [3]; 250 to 500 nM in assay [4]; over 2500 nM in assay [5].

Values taken from patent publication US7157596B2, “Inhibitors of serine protease activity of matriptase or MTSP1” (Dendreon Corporation, priority 2000, dated 2007).
